Laboratory results as given in patent US20260042753A1 (Merck Patent GmbH, priority 2019, published 2026).
Counter-ions that a name gives are not always drawn.

Columns and labels:
[1] = biological target: mutant cKIT (560-576 and V654A) in GIST430/654 cell line (Homo sapiens (Human), UniProt P10721, DEL560-576/V654A); assay: Cellular testing of cKIT mutant inhibitors: phospho-Y307-cKIT Luminex assay in GIST430/654 cells; type: cell-based; settings: Table 1; cKIT autophosphorylation, compounds 45 min; read-out: GIST 430/654 IC50
Description: Assay Principle for Cellular Testing of cKIT Mutant Inhibitors
The GIST430/654 cell line expressing mutated constitutively active cKIT receptor tyrosine kinase ([…]560-576 and V654A) was employed for assessing cellular potency of compounds. Cellular activity of mutant cKIT was determined by the degree of cKIT autophosphorylation at tyrosine 307 using a Luminex-based bead assay. GIST430/654 cells were plated with 25,000 cells per well of a 96-well plate in 100 μl medium (85% IMDM/15% FCS supplemented with 100 nM Imatinib). At the following day compounds were added in a serial dilution for 45 min. Then, cells were lysed with 90 μl lysis buffer (20 mM Hepes pH 7.5, 200 mM NaCl, 1.5 mM MgCl2×6H2O, 0.4 mM EDTA, 1% Triton-X-100, 1% Phosphatase-Inhibitor II, 20 mM D-Glycerolphosphat, 0.1% Protease-Inhibitor Cocktail III, 0.01% Benzonase) und lysates were cleared by centrifugation through a 96-well filter plate (0.65 μm). Samples were incubated with Luminex-beads which were coupled with an anti-total cKIT antibody overnight at 4° C. under gentle agitation. For detection of phospho-Y307-cKIT a phosphospecific antibody and a species-specific PE-labelled secondary antibody were added. The amount of phospho-Y307-cKIT was determined in a Luminex 200 instrument measuring 100 events per well within 60 seconds.
Counts from samples treated with compounds were calculated as percent of control from solvent treated (0.3% DMSO) samples. Dose-response curves were fitted and IC50 values were determined using Genedata Screener software.

c-Kit(V654A) = c-Kit(V654A) (Homo sapiens, UniProt P10721, V654A); assay: c-Kit(V654A) assay; type: biochemical; settings: Table 1; 200 μM ATP
Description: c-Kit(V654A) (N-terminal GST-tagged, recombinant human c-Kit, amino acids 544-end containing the V654A mutation) is incubated with 8 mM MOPS pH 7.0, 0.2 mM EDTA, 250 μM GGMEDIYEFMGGKKK, 10 mM MgAcetate and [gamma-33P-ATP](specific activity approx. 500 cpm/pmol, concentration 200 μM). The reaction is initiated by the addition of the MgATP mix. After incubation for 40 minutes at room temperature, the reaction is stopped by the addition of 3% phosphoric acid solution. 10 μL of the reaction is then spotted onto a P30 filtermat and washed three times for 5 minutes in 75 mM phosphoric acid and once in methanol prior to drying and scintillation counting.

Chain of mutant cKIT (560-576 and V654A) in GIST430/654 cell line (P10721 other isoform, or with tags, fused parts or gaps V654A/del 1-25/del 560-576 limits assumed): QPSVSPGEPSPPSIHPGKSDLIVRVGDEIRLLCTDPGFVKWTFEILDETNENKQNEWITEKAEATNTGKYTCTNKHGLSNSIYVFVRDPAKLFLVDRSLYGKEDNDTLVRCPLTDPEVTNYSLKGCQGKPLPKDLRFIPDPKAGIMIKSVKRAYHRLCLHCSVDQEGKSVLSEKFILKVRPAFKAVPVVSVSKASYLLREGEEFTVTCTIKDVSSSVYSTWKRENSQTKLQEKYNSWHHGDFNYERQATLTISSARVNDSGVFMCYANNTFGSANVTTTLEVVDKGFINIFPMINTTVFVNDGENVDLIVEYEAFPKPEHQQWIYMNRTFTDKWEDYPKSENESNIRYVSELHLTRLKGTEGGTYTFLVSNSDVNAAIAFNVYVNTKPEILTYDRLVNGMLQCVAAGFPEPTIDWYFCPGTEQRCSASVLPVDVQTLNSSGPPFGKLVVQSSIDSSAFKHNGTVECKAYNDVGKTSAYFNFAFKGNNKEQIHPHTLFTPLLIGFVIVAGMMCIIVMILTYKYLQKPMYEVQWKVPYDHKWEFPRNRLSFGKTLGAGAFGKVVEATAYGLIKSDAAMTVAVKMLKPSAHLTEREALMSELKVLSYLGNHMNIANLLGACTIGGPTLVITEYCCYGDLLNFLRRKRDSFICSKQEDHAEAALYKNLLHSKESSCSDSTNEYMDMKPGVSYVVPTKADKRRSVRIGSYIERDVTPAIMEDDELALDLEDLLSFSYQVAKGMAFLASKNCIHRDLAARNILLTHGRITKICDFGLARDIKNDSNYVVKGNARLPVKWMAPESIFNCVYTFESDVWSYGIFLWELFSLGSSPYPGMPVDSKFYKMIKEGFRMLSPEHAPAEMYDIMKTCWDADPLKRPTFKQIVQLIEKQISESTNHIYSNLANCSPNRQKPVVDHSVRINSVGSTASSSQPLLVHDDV

CNCC1CCCN1C(=O)c1ccc(-c2cc(-c3n[nH]c4cc(OCCOC)c(F)cc34)on2)cc1 (centres unmarked) [A222, {[1-(4-{5-[5-fluoro-6-(2-methoxyethoxy)-1H-indazol-3-yl]-1,2-oxazol-3-yl}benzoyl)pyrrolidin-2-yl]methyl}(methyl)amine]
IC50 [1]: 110 nM | IC50 (c-Kit(V654A)): 0.52 nM

COCCOc1cc2[nH]nc(-c3cc(-c4ccc(C)nc4)no3)c2cc1Cl [A13, 5-chloro-6-(2-methoxyethoxy)-3-[3-(6-methylpyridin-3-yl)-1,2-oxazol-5-yl]-1H-indazole]
IC50 [1]: 300 nM | IC50 (c-Kit(V654A)): 11 nM

COCCOc1cc2[nH]nc(-c3cc(-c4ccc(C(=O)N5CC6(CN(C)C6)C5)cc4)no3)c2cc1F [A88, 5-fluoro-6-(2-methoxyethoxy)-3-[3-(4-{6-methyl-2,6-diazaspiro[3.3]heptane-2-carbonyl}phenyl)-1,2-oxazol-5-yl]-1H-indazole]
IC50 [1]: 170 nM | IC50 (c-Kit(V654A)): 2.3 nM

COCCOc1cc2[nH]nc(-c3cc(-c4ccc(C(=O)N5CC(N6CCS(=O)(=O)CC6)C5)cc4)no3)c2cc1F [A57, 4-[1-(4-{5-[5-fluoro-6-(2-methoxyethoxy)-1H-indazol-3-yl]-1,2-oxazol-3-yl}benzoyl)azetidin-3-yl]-1lambda6-thiomorpholine-1,1-dione]
IC50 [1]: 180 nM | IC50 (c-Kit(V654A)): 1.9 nM

COCCOc1cc2[nH]nc(-c3cc(-c4ccc(C(=O)N5CC(N6CCOCC6)C5)cc4)on3)c2cc1F [A146, (4-{3-[5-fluoro-6-(2-methoxy-ethoxy)-1H-indazol-3-yl]-isoxazol-5-yl}-phenyl)-(3-morpholin-4-yl-azetidin-1-yl)-methanone]
IC50 [1]: 90 nM | IC50 (c-Kit(V654A)): 2.9 nM

COCCOc1cc2[nH]nc(-c3cc(-c4ccc(C(=O)N5CCS(=O)(=O)CC5C)cc4)no3)c2cc1F (centres unmarked) [A121, 4-(4-{5-[5-fluoro-6-(2-methoxyethoxy)-1H-indazol-3-yl]-1,2-oxazol-3-yl}benzoyl)-3-methyl-1lambda6-thiomorpholine-1,1-dione]
IC50 [1]: 42 nM | IC50 (c-Kit(V654A)): 0.6 nM

[2H]C1([2H])NC([2H])([2H])C([2H])([2H])N(C(=O)c2ccc(-c3cc(-c4n[nH]c5cc(OCCOC)c(F)cc45)on3)cc2)C1([2H])[2H] [A232, 5-fluoro-6-(2-methoxyethoxy)-3-(3-{4-[(2,2,3,3,5,5,6,6-^2H8)piperazine-1-carbonyl]phenyl}-1,2-oxazol-5-yl)-1H-indazole hydrochloride]
IC50 [1]: 100 nM | IC50 (c-Kit(V654A)): 0.09 nM

O=C(c1ccc(-c2cc(-c3n[nH]c4cc(OCCO)c(F)cc34)on2)cc1)N1CC(N2CCOCC2)C1 [A209, 2-{[5-fluoro-3-(3-{4-[3-(morpholin-4-yl)azetidine-1-carbonyl]phenyl}-1,2-oxazol-5-yl)-1H-indazol-6-yl]oxy}ethan-1-ol]
IC50 [1]: 120 nM | IC50 (c-Kit(V654A)): 0.86 nM

COCCOc1cc2[nH]nc(-c3cc(-c4ccc(C(=O)N5CCN(C6CCOCC6)CC5)cc4)no3)c2cc1F [A188, 5-fluoro-6-(2-methoxyethoxy)-3-(3-{4-[4-(oxan-4-yl)piperazine-1-carbonyl]phenyl}-1,2-oxazol-5-yl)-1H-indazole]
IC50 [1]: 34 nM | IC50 (c-Kit(V654A)): 0.61 nM

COCCOc1cc2[nH]nc(-c3cc(-c4ccc(C(=O)N5CC(N6CCOC[C@@H]6C)C5)cc4)no3)c2cc1F [A200, 5-fluoro-6-(2-methoxyethoxy)-3-[3-(4-{3-[(3S)-3-methylmorpholin-4-yl]azetidine-1-carbonyl}phenyl)-1,2-oxazol-5-yl]-1H-indazole]
IC50 [1]: 19 nM | IC50 (c-Kit(V654A)): 1.3 nM

COCCOc1cc2[nH]nc(-c3cc(-c4ccc(S(C)(=O)=O)cc4)no3)c2cc1F [A16, 5-fluoro-3-[3-(4-methanesulfonylphenyl)-1,2-oxazol-5-yl]-6-(2-methoxyethoxy)-1H-indazole]
IC50 [1]: 94 nM | IC50 (c-Kit(V654A)): 4.8 nM

COCCOc1cc2[nH]nc(-c3cc(-c4ccc(C(=O)N5CC(N6CCOCC6)C5)c(F)c4)no3)c2cc1F [A168, (2-fluoro-4-{5-[5-fluoro-6-(2-methoxy-ethoxy)-1H-indazol-3-yl]-isoxazol-3-yl}-phenyl)-(3-morpholin-4-yl-azetidin-1-yl)-methanone]
IC50 [1]: 49 nM | IC50 (c-Kit(V654A)): 3.3 nM

COCCOc1cc2[nH]nc(-c3cc(-c4ccc(C(=O)N5CC(N6CCCC6)C5)cc4)no3)c2cc1F [A178, 5-fluoro-6-(2-methoxyethoxy)-3-(3-{4-[3-(pyrrolidin-1-yl)azetidine-1-carbonyl]phenyl}-1,2-oxazol-5-yl)-1H-indazole]
IC50 [1]: 62 nM | IC50 (c-Kit(V654A)): 1.1 nM

COCCOc1cc2[nH]nc(-c3cc(-c4ccc(C(=O)N5CC(N6CCOCC6)C5)cc4)no3)c2cc1Cl [A64, (4-{5-[5-chloro-6-(2-methoxy-ethoxy)-1H-indazol-3-yl]-isoxazol-3-yl}-phenyl)-(3-morpholin-4-yl-azetidin-1-yl)-methanone]
IC50 [1]: 32 nM | IC50 (c-Kit(V654A)): 0.53 nM

COCCOc1cc2[nH]nc(-c3cc(-c4ccc(C(=O)N5CC(c6nc(C)no6)C5)cc4)no3)c2cc1F [A166, 5-fluoro-6-(2-methoxyethoxy)-3-(3-{4-[3-(3-methyl-1,2,4-oxadiazol-5-yl)azetidine-1-carbonyl]phenyl}-1,2-oxazol-5-yl)-1H-indazole]
IC50 [1]: 87 nM | IC50 (c-Kit(V654A)): 0.96 nM

COCCOc1cc2[nH]nc(-c3cc(-c4ccc(C(=O)N(C)C)cn4)no3)c2cc1F [A91, 6-{5-[5-fluoro-6-(2-methoxyethoxy)-1H-indazol-3-yl]-1,2-oxazol-3-yl}-N,N-dimethylpyridine-3-carboxamide]
IC50 [1]: 290 nM | IC50 (c-Kit(V654A)): 7.2 nM

COCCOc1cc2[nH]nc(-c3cc(-c4ccc(N5CCCNCC5)cc4)no3)c2cc1F [A42, 3-{3-[4-(1,4-diazepan-1-yl)phenyl]-1,2-oxazol-5-yl}-5-fluoro-6-(2-methoxyethoxy)-1H-indazole]
IC50 [1]: 170 nM | IC50 (c-Kit(V654A)): 0.73 nM

COCCOc1cc2[nH]nc(-c3cc(-c4ccc(C(=O)N5C6COCC5C6)cc4)no3)c2cc1F [A182, 5-fluoro-6-(2-methoxyethoxy)-3-[3-(4-{3-oxa-6-azabicyclo[3.1.1]heptane-6-carbonyl}phenyl)-1,2-oxazol-5-yl]-1H-indazole]
IC50 [1]: 38 nM | IC50 (c-Kit(V654A)): 0.94 nM

COCCOc1cc2[nH]nc(-c3cc(-c4ccc(C(=O)N5CCOCC5)cc4)on3)c2cc1F [A43, (4-{3-[5-fluoro-6-(2-methoxy-ethoxy)-1H-indazol-3-yl]-isoxazol-5-yl}-phenyl)-morpholin-4-yl-methanone]
IC50 [1]: 120 nM | IC50 (c-Kit(V654A)): 2.2 nM

COCCOc1cc2[nH]nc(-c3cc(-c4ccc(C(=O)N5CCOC[C@H]5CO)cc4)no3)c2cc1Cl [A67, (4-{5-[5-chloro-6-(2-methoxy-ethoxy)-1H-indazol-3-yl]-isoxazol-3-yl}-phenyl)-((R)-3-hydroxymethyl-morpholin-4-yl)-methanone]
IC50 [1]: 94 nM | IC50 (c-Kit(V654A)): 0.88 nM

COCCOc1cc2[nH]nc(-c3cc(-c4ccc(C(=O)N5CC(N6CCO[C@H](C)C6)C5)cc4)no3)c2cc1F [A211, 5-fluoro-6-(2-methoxyethoxy)-3-[3-(4-{3-[(2R)-2-methylmorpholin-4-yl]azetidine-1-carbonyl}phenyl)-1,2-oxazol-5-yl]-1H-indazole]
IC50 [1]: 39 nM | IC50 (c-Kit(V654A)): 1.3 nM

COCCOc1cc2[nH]nc(-c3cc(-c4ccc(C(=O)N5CCC[C@H]5CNS(C)(=O)=O)cc4)no3)c2cc1F [A90, N-{[(2S)-1-(4-{5-[5-fluoro-6-(2-methoxyethoxy)-1H-indazol-3-yl]-1,2-oxazol-3-yl}benzoyl)pyrrolidin-2-yl]methyl}methanesulfonamide]
IC50 [1]: 120 nM | IC50 (c-Kit(V654A)): 0.47 nM

COCCOc1cc2[nH]nc(-c3cc(-c4ccc(C(=O)N5CCOC[C@@H]5COC)cc4)no3)c2cc1F [A110, 5-fluoro-6-(2-methoxyethoxy)-3-(3-{4-[(3S)-3-(methoxymethyl)morpholine-4-carbonyl]phenyl}-1,2-oxazol-5-yl)-1H-indazole]
IC50 [1]: 50 nM | IC50 (c-Kit(V654A)): 0.76 nM

COCCOc1cc2[nH]nc(-c3cc(-c4ccc(S(=O)(=O)N(C)C)cc4)no3)c2cc1F [A144, 4-{5-[5-fluoro-6-(2-methoxyethoxy)-1H-indazol-3-yl]-1,2-oxazol-3-yl}-N,N-dimethylbenzene-1-sulfonamide]
IC50 [1]: 1900 nM | IC50 (c-Kit(V654A)): 3.2 nM

COCCOc1cc2[nH]nc(-c3cc(-c4ccc(C(=O)N5CC(N6CCOCC6)C5)c(C)c4)no3)c2cc1F [A171, (4-{5-[5-fluoro-6-(2-methoxy-ethoxy)-1H-indazol-3-yl]-isoxazol-3-yl}-2-methyl-phenyl)-(3-morpholin-4-yl-azetidin-1-yl)-methanone]
IC50 [1]: 63 nM | IC50 (c-Kit(V654A)): 1.4 nM
